Experimental data reported in patent publication US20250034264A1, “REGULATING T CELL IMMUNE RESPONSE THROUGH IGF-I RECEPTOR (IGF-1R)” (The Regents of the University of Michigan, priority 2021, published 2025).

Assays:
Format in all cases: cell-based, human
GD-OF [1] = assay: IL-23p19 and IL-12p35 mRNA expression, real-time PCR
Experimental: FIGS. 10A-10F are graphs showing the divergent effect of teprotumumab on bTSH induced IL-23p19 and IL-12p35 expression on fibrocytes and GD-OF. Rinsed fibrocyte and GD-OF monolayers were incubated with or without 50 μg/ml teprotumumab (FIGS. 10A and 10B) or 1 μM linsitinib (FIGS. 10C and 10D) and human Isotype IgG for 7-9 d, and bTSH (5 mIU/mL) was added for 6 h. Harvested RNA was reverse transcribed and isolated cDNA was subjected to quantitative real-time PCR for IL-23p19 and IL-12p35 mRNA levels. Values were normalized to their respective GAPDH levels and are expressed as the mean±SD of three independent determinations. Experiments were repeated three times. FIGS. 10E and 10F are graphs showing the levels of IL-23 protein when rinsed fibrocyte and GD-OF monolayers were incubated with or without 50 μg/ml teprotumumab. **, p<0.01; ***. P<0.001.
FIGS. 15A-15C are dose-response curves of teprotumumab effects on IL-6 expression/induction by bTSH (FIG. 15A); HAS2 expression/induction by bTSH (FIG. 15B); IL-12p35 expression/induction by bTSH (FIG. 15C). Following indicated treatments, cellular RNA was harvest from rinsed GD-OF cell layers, reversed transcribed and subjected to real-time PCR. Values were normalized to their respective GAPDH levels.
Graves' disease-orbital fibroblast (GD-OF) preparation and cultivtion GD-OF were isolated from orbital adipose/connective tissues removed during surgical orbital decompression surgery, as described ((Smith, T. J., et al., (2002) The Journal of clinical endocrinology and metabolism 87, 385-392). While the fraction of CD34^+ OF comprising GD-OF strains vary somewhat, the ratios of CD34^+/CD34^− OF are usually 50:50 in the early passages utilized in these studies (passages 2-11). Pure CD34^+ OF and CD34^− OF subsets were generated by staining for 30 m at 4° C. with fluorescein isothiocyanate-conjugated […] CD34 or its isotype control followed by cytometric cell sorting using a FACSAria III (BD Biosciences) instrument. Cells were sorted under sterile conditions into either CD34^+ OF, and CD34 OF subsets which were then re-cultured and treated without or with bTSH (5 mU/mL) or the other test compounds, as indicated, for 6 hrs, as indicated.
(§1) Real-time PCR Confluent fibrocyte and GD-OF cultures were incubated with bTSH (5 mIU/mL), teprotumumab (50 μg/mL) or linsitinib (1 μM) for the time intervals indicated, washed with PBS and RNA was extracted with the Aurum Total RNA Mini Kit (cat. #732-6820, Bio-Rad, Hercules, CA). Cellular RNA (2 μg) was reverse transcribed using QuantiTect Reverse Transcription kit (cat. #205314, Qiagen (Germantown, MD) and real-time PCR was performed using an Applied Biosystems instrument with QuantiTect SYBR Green PCR kit (cat. no. 204143; Qiagen, Frederick, MD). Primer sequences were as follows.

fibrocytes [2] = assay: AIRE and thyroid autoantigen (Tg, TPO, NIS) mRNA expression; settings: 50 μg/mL 7-9 days; bTSH 5 mIU/mL 6 h; vs isotype control mAb
Experimental: FIGS. 9A-9D are graphs showing the effect of teprotumumab on bovine thyrotropin or thyroid-stimulating hormone (bTSH) induced thyroid specific genes thyroglobulin (Tg), sodium iodide symporter (NIS), thyroperoxidase (TPO), and autoimmune regulator protein (AIRE) in fibrocytes. Confluent fibrocyte cultures were treated with or without teprotumumab (50 μg/ml) and human Isotype IgG for 7-9 d, followed by bTSH (5 mIU/mL) for 6 h. Monolayers were washed with PBS and RNA was extracted and reverse transcribed. Harvested cDNA was subjected to quantitative real-time PCR for AIRE (FIG. 9A), Tg (FIG. 9B), TPO (FIG. 9C), and NIS (FIG. 9D) mRNA levels. Values were normalized to their respective GAPDH levels and are expressed as the mean f SD of three independent determinations. Experiments were repeated three times. *, P<0.05; **, p<0.01.
as §1

GD-OF [3] = assay: Hyaluronan (HA) production, ELISA; settings: 50 μg/ml, over 96 h
Experimental: (§2) FIGS. 13A-13B are graphs showing the effect of teprotumumab on bTSH induced hyaluronan (HA) production in GD-OF (FIG. 13A) and fibrocytes (FIG. 13B). GD-OF were treated with or without teprotumumab (50 μg/ml) or human Isotype IgG (5 μg/ml) for 7-9 d and stimulated with bTSH (5 mIU/mL) for graded intervals indicated along the abscissa for 0 to 96h. Media were collected and subjected to HA ELISA. Values were normalized to respective cell layer protein levels and expressed as the mean±SD of three independent determinations. Experiments were repeated three times. FIGS. 13C-13F are graphs showing the divergent pattern of hyaluronan synthase (HAS) isoenzyme induction by bTSH in fibrocytes versus GD-OF and effects of teprotumumab (FIGS. 13C and 13D) and linsitinib (FIGS. 13E and 13F). Confluent monolayers of GD-OF and fibrocytes remained untreated or received teprotumumab (50 μg/ml) or linsitinib (1 μM) and human Isotype IgG for 7-9 d. Some cultures were treated with bTSH (5 mIU/mL) for 6h. Cellular RNA was harvested mRNA was reverse transcribed, and cDNA subjected to quantitative real-time PCR for HAS1 and HAS2. Values were normalized to their respective GAPDH levels and are expressed as the mean±SD of three independent determinations. Experiments were repeated three times. *, P<0.05; **, p<0.01; ***. P<0.001.
(§3) IL-12, IL-23, IL-10, HA and BAFF ELISAs. […]

fibrocytes [4] = assay: Hyaluronan (HA) production, ELISA; settings: 50 μg/ml
Experimental: as §2, §3

[5] = teprotumumab 50 μg/ml or linsitinib 1 μM, 7-9 d

Substance: teprotumumab
- dose dependence of effects (FIG. 15: IL-6, HAS2, IL-12p35 expression/induction by bTSH) (GD-OF [1]; dose-response curves, GD-OF): dose-dependent
- IL-12p35 expression, basal and induction by bTSH (GD-OF [1]; [5]): enhances
- IL-23p19 expression, basal and induction by bTSH (GD-OF [1]; [5]): inhibited
- AIRE basal expression and induction by bTSH (fibrocytes [2]): inhibited
- NIS basal expression and induction by bTSH (fibrocytes [2]): inhibited
- TPO basal expression and induction by bTSH (fibrocytes [2]): inhibited
- Tg basal expression and induction by bTSH (fibrocytes [2]): inhibited
- effects of bTSH on HA synthesis (GD-OF [3]): enhanced
- HA synthesis, bTSH with teprotumumab (fibrocytes [4]): synergism
